The text below walks through data of PubChem BioAssay AID328 (DTP/NCI, 2004).

The test system of the test is BDF1 mice, P388 leukemia ip, median survival T/C. Put plainly: NCI In Vivo Anticancer Drug Screen. Data for tumor model P388 Leukemia (intraperitoneal) in B6D2F1 (BDF1) mice. The settings on record: endpoint: median survival time, higher = longer survival. The essentials: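 Read-out is survival of treated animals expressed relative to the vehicle group, as a T/C ratio.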

The mark [1] stands for this setting: dose: 100.0 mg/kg/injection, schedule: Q01DX009 (ip), vehicle: Klucel (hydroxypropylcellulose) (HPC).
Where [2] appears, read: dose: 100.0 mg/kg/injection, schedule: Q04DX003 (ip), vehicle: Klucel (hydroxypropylcellulose) (HPC).
[3] abbreviates: dose: 200.0 mg/kg/injection, schedule: Q01DX009 (ip), vehicle: Klucel (hydroxypropylcellulose) (HPC).
[4] abbreviates: dose: 200.0 mg/kg/injection, schedule: Q04DX003 (ip), vehicle: Klucel (hydroxypropylcellulose) (HPC).
[5] abbreviates: dose: 400.0 mg/kg/injection, schedule: Q01DX009 (ip), vehicle: Klucel (hydroxypropylcellulose) (HPC).
Setting [6] is: dose: 400.0 mg/kg/injection, schedule: Q04DX003 (ip), vehicle: Klucel (hydroxypropylcellulose) (HPC).
Where [7] appears, read: dose: 100.0 mg/kg/injection, schedule: Q01DX009 (ip), vehicle: saline with Tween-80.
[8] abbreviates: dose: 100.0 mg/kg/injection, schedule: Q04DX003 (ip), vehicle: saline.
The mark [9] stands for this setting: dose: 200.0 mg/kg/injection, schedule: Q01DX009 (ip), vehicle: saline with Tween-80.
The mark [10] stands for this setting: dose: 200.0 mg/kg/injection, schedule: Q04DX003 (ip), vehicle: saline.
Setting [11] is: dose: 400.0 mg/kg/injection, schedule: Q04DX003 (ip), vehicle: saline.
Where [12] appears, read: dose: 100.0 mg/kg/injection, schedule: Q04DX003 (ip), vehicle: saline with Tween-80.
Where [13] appears, read: dose: 200.0 mg/kg/injection, schedule: Q04DX003 (ip), vehicle: saline with Tween-80.
[14] abbreviates: dose: 400.0 mg/kg/injection, schedule: Q04DX003 (ip), vehicle: saline with Tween-80.
Where [15] appears, read: dose: 50.0 mg/kg/injection, schedule: Q01DX009 (ip), vehicle: saline with Tween-80.

Each structure is given as a SMILES string. “And” between values parts separate entries of the source, which are not always exact repeats. Equal values may be shown once. Toxic doses and inconclusive results are not listed.

As for `CCOC1=C(N2CC2)C(=O)C(OCC)=C(N2CC2)C1=O`, the T/C is, setting by setting: (dose: 0.07 mg/kg/injection, schedule: Q01DX009 (ip), vehicle: saline with Tween-80) 95 % of control; (dose: 0.25 mg/kg/injection, schedule: Q01DX009 (ip), vehicle: saline) 165 % of control; (dose: 0.25 mg/kg/injection, schedule: Q04DX003 (ip), vehicle: saline) 109 % of control; (dose: 0.3 mg/kg/injection, schedule: Q01DX009 (ip), vehicle: saline with Tween-80) 122 % of control; (dose: 0.5 mg/kg/injection, schedule: Q01DX009 (ip), vehicle: saline) 152 % of control and 190 % of control; (dose: 0.5 mg/kg/injection, schedule: Q04DX003 (ip), vehicle: saline) 154 % of control. In addition, the T/C is 153 % of control (dose: 0.6 mg/kg/injection, schedule: Q01DX009 (ip), vehicle: saline with Tween-80); 122 % of control (dose: 0.63 mg/kg/injection, schedule: Q04DX003 (ip), vehicle: saline); 245 % of control and 195 % of control (dose: 1.0 mg/kg/injection, schedule: Q01DX009 (ip), vehicle: saline); 200 % of control (dose: 1.0 mg/kg/injection, schedule: Q04DX003 (ip), vehicle: saline); 242 % of control and 105 % of control (dose: 2.0 mg/kg/injection, schedule: Q01DX009 (ip), vehicle: saline); 172 % of control (dose: 2.5 mg/kg/injection, schedule: Q04DX003 (ip), vehicle: saline). The T/C (dose: 4.0 mg/kg/injection, schedule: Q01DX009 (ip), vehicle: saline) was 114 % of control.

Turning to `COc1ccc(C2(C#N)CCCCC2)cc1`, the T/C was 104 % of control under setting [1]; 95 % of control under setting [2]; 91 % of control under setting [3]; 108 % of control under setting [4]; 108 % of control under setting [5]; 91 % of control under setting [6].

As for `CC(=O)OC(=O)C(Cc1ccccc1)NC(=O)C(N)CCCN=C(N)N` (stereo not given), the T/C was 98 % of control (dose: 50.0 mg/kg/injection, schedule: Q01DX005 (ip), vehicle: saline with Tween-80) and 103 % of control (dose: 100.0 mg/kg/injection, schedule: Q01DX005 (ip), vehicle: saline with Tween-80).

Turning to `COC(=O)NC1=C(N2CC2)C(=O)C(NC(=O)OC)=C(N2CC2)C1=O`, the T/C runs as follows: (dose: 0.37 mg/kg/injection, schedule: Q01DX009 (ip), vehicle: saline) 242 % of control and 222 % of control; (dose: 0.75 mg/kg/injection, schedule: Q01DX009 (ip), vehicle: saline) 252 % of control and 270 % of control.

Turning to `CCOC(=O)C(OCc1ccccc1)C(=O)OCC`, the T/C is 87 % of control under setting [7]; 115 % of control under setting [8]; 104 % of control under setting [9]; 90 % of control under setting [10]; 108 % of control (dose: 400.0 mg/kg/injection, schedule: Q01DX009 (ip), vehicle: saline with Tween-80); 90 % of control under setting [11].

`CSc1nc2c(N)nc(N)nc2nc1C`: the T/C was 100 % of control under setting [12], 108 % of control under setting [13] and 108 % of control under setting [14].

Regarding `CN(C)N=Nc1cn(C2OC(CO)C(O)C2O)c(=O)[nH]c1=O` (stereo not given), the T/C was 115 % of control (dose: 9.0 mg/kg/injection, schedule: Q01DX009 (ip), vehicle: saline); 110 % of control (dose: 18.0 mg/kg/injection, schedule: Q01DX009 (ip), vehicle: saline); 100 % of control (dose: 25.0 mg/kg/injection, schedule: Q01DX009 (ip), vehicle: saline); 300 % of control and 120 % of control (dose: 37.5 mg/kg/injection, schedule: Q01DX009 (ip), vehicle: saline); 120 % of control (dose: 50.0 mg/kg/injection, schedule: Q01DX009 (ip), vehicle: saline); 300 % of control and 150 % of control (dose: 75.0 mg/kg/injection, schedule: Q01DX009 (ip), vehicle: saline). Further, the T/C runs as follows: (dose: 150.0 mg/kg/injection, schedule: Q01DX009 (ip), vehicle: saline) 300 % of control and 180 % of control; (dose: 400.0 mg/kg/injection, schedule: Q01DX009 (ip), vehicle: saline) 150 % of control.

Regarding `Cc1ccccc1Nc1n[nH]c(=S)s1`, the T/C was 95 % of control under setting [15], 95 % of control under setting [7] and 104 % of control under setting [9].

Consider `O=C(CC(O)(C(F)(F)F)C(F)(F)F)c1ccc(Cl)cc1`, for which the T/C under setting [15] was 108 % of control, the T/C under setting [7] is 95 % of control and the T/C under setting [9] is 108 % of control.

Turning to `O=C1OC(=C(c2ccccc2)c2ccccc2)c2ccccc21`, the T/C is 100 % of control (dose: 50.0 mg/kg/injection, schedule: Q01DX009 (ip), vehicle: Klucel (hydroxypropylcellulose) (HPC)); 100 % of control under setting [1]; 100 % of control under setting [3].

Consider `CSc1nc(NN(C)C)c2[nH]c(C)nc2n1`, for which the T/C by setting is: (dose: 0.78 mg/kg/injection, schedule: Q01DX009 (ip), vehicle: saline with Tween-80) 97 % of control; (dose: 1.56 mg/kg/injection, schedule: Q01DX009 (ip), vehicle: saline with Tween-80) 116 % of control; (dose: 3.13 mg/kg/injection, schedule: Q01DX009 (ip), vehicle: saline with Tween-80) 111 % of control; (dose: 6.25 mg/kg/injection, schedule: Q01DX009 (ip), vehicle: saline with Tween-80) 87 % of control.

Regarding `Cc1ccc(C(Br)C2=CC(C)(C)c3ccccc3C2=O)cc1` (stereo not given), the T/C was 118 % of control under setting [1]; 95 % of control under setting [2]; 90 % of control and 95 % of control under setting [3]; 113 % of control under setting [4]; 113 % of control (dose: 300.0 mg/kg/injection, schedule: Q01DX009 (ip), vehicle: Klucel (hydroxypropylcellulose) (HPC)); 100 % of control under setting [5]. Besides, the T/C under setting [6] was 113 % of control.

Turning to `CCOC(=O)CNCc1cccnc1`, the T/C was 120 % of control under setting [8], 117 % of control under setting [10] and 118 % of control under setting [11].

Take `CCN1c2ccccc2CC(CCN(C(C)C)C(C)C)(C(N)=O)c2ccccc21` (stereo not given): the T/C (dose: 100.0 mg/kg/injection, schedule: Q04DX002 (ip), vehicle: saline with Tween-80) is 108 % of control.

Consider `CCCCCCCCCCCCN(C)C`, for which the T/C (dose: 12.5 mg/kg/injection, schedule: Q04DX003 (ip), vehicle: saline) was 104 % of control; the T/C (dose: 25.0 mg/kg/injection, schedule: Q04DX003 (ip), vehicle: saline) was 109 % of control; the T/C (dose: 50.0 mg/kg/injection, schedule: Q04DX003 (ip), vehicle: saline) was 118 % of control.

As for `O=C(/C=C/c1ccc(O)cc1)c1ccccc1`, the T/C is 118 % of control under setting [12], 168 % of control under setting [13] and 113 % of control under setting [14].

On to `[N-]=[N+]=[N-]`, for which the T/C (dose: 2.5 mg/kg/injection, schedule: Q01DX009 (ip), vehicle: saline) is 90 % of control; the T/C (dose: 5.0 mg/kg/injection, schedule: Q01DX009 (ip), vehicle: saline) is 90 % of control; the T/C (dose: 5.0 mg/kg/injection, schedule: Q04DX003 (ip), vehicle: saline) is 112 % of control; the T/C (dose: 10.0 mg/kg/injection, schedule: Q04DX003 (ip), vehicle: saline) was 95 % of control.

With `Cc1cc2c(cc1C)C(=O)C(N1CCN(C)CC1)CCC2` (stereo not given), the T/C reads like this: (dose: 25.0 mg/kg/injection, schedule: Q04DX003 (ip), vehicle: saline with Tween-80) 100 % of control; (dose: 50.0 mg/kg/injection, schedule: Q04DX003 (ip), vehicle: saline with Tween-80) 104 % of control; under setting [12], 86 % of control.

As for `COc1ccc(C(=O)/C=C/c2ccc(OCc3ccccc3)cc2)cc1`, the T/C reads like this: under setting [15], 100 % of control; under setting [7], 91 % of control; under setting [9], 96 % of control.
